The source of these data is patent publication US12643910B2, “Substituted pyrazolo[3,4-b]pyridines as ectonucleotide pyrophosphatase/phosphodiesterase 1 (ENPP1) modulators” (SANFORD BURNHAM PREBYS MEDICAL DISCOVERY INSTITUTE, priority 2019, dated 2026).

Some results are limits rather than exact numbers.

In general, IC50 refers to the concentration that gives 50% inhibition.

The target in one assay is T1, human ENPP1 (Homo sapiens, UniProt P22413).
T1 construct: made in house
T1 sequence (P22413 1-925): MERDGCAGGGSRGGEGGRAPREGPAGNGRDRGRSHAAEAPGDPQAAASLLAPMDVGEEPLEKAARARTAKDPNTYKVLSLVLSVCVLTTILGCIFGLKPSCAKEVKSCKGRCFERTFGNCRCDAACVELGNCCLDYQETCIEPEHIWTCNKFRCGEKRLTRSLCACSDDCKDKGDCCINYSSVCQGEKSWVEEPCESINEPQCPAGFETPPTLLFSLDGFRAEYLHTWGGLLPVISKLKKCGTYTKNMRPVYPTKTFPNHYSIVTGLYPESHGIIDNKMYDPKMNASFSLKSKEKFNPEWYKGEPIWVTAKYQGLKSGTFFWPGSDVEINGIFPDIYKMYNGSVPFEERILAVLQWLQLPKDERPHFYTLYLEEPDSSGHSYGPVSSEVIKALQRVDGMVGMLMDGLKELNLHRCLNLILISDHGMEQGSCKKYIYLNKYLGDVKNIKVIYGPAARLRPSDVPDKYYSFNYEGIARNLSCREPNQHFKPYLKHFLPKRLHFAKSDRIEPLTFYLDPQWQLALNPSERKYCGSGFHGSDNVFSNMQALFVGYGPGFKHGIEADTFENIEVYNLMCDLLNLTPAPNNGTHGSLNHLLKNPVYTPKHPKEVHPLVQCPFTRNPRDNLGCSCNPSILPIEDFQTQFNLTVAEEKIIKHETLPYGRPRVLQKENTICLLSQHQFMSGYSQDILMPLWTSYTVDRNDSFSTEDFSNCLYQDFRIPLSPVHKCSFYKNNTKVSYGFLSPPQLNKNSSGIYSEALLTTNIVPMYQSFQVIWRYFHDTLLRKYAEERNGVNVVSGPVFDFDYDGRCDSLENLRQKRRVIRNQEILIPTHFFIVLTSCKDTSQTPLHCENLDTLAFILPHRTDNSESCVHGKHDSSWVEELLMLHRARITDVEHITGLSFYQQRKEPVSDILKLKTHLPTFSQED
Description: ENPP1 assay with ATP substrate (Transcreener AMP2/GMP2 TR-FRET). In kind it is biochemical. As to conditions: 1 hour at room temperature. The method in brief: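 5′-AMP from ATP hydrolysis (300 nM ATP stock added; enzyme added as 8.5 μM stock) detected by competitive TR-FRET. Buffer: 50 mM Tris pH 7.5, 1 mM TCEP, 2 mM MgCl2, 0.005% Tween 20, 1% DMSO. Reaction 1 h at room temperature, EDTA stop. IC50 from 2-parameter variable-slope fit.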
(In general: Time-resolved FRET reads energy transfer from a long-lived donor to a nearby acceptor.)

Another assay concerns the target T2, ENPP3 (Homo sapiens, UniProt O14638).
T2 sequence (O14638 1-875): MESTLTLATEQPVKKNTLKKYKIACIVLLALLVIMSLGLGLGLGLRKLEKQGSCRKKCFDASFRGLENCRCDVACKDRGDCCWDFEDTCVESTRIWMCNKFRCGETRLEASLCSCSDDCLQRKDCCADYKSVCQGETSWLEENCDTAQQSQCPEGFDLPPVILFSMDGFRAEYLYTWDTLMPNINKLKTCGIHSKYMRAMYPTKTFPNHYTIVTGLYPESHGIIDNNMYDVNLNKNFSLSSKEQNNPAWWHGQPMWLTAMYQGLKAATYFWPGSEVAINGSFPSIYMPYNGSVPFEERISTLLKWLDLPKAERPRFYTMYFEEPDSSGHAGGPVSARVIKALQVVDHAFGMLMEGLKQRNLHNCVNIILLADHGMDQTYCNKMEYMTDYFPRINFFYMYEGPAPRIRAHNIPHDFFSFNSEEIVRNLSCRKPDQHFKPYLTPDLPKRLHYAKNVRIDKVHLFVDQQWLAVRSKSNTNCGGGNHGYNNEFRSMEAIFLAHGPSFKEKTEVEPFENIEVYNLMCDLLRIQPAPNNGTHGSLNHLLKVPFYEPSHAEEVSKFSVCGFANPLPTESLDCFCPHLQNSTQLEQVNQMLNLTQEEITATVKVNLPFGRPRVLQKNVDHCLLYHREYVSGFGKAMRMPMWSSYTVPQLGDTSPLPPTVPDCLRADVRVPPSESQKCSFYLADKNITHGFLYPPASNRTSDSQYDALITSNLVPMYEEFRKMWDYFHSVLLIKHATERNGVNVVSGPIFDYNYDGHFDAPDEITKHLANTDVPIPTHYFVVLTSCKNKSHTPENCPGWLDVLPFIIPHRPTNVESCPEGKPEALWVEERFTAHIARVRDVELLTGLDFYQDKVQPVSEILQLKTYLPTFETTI
Description: ENPP3 Km ATP assay. It is filed as biochemical. The note with it: ATP at Km.

As to `Cc1ccc(CNc2nc(-c3ccccn3)nc3scc(-c4ccccc4)c23)o1` [Example 1.32, N-((5-methylfuran-2-yl)methyl)-5-phenyl-2-(pyridin-2-yl)thieno[2,3-d]pyrimidin-4-amine], the IC50 on human ENPP1 was 1 to 20 µM; at ENPP3, more than 20 µM.

With `c1ccc(-c2csc3nc(-c4ccccn4)nc(NCc4cccs4)c23)cc1` [Example 1.33, (5-Phenyl-2-pyridin-2-yl-thieno[2,3-d]pyrimidin-4-yl)-thiophen-2-ylmethyl-amine], the IC50 on human ENPP1 was in the range of 0.1 to 1 µM; on ENPP3, 1 to 20 µM.

For the compound `NS(=O)(=O)c1ccc(CNc2nc(N3CCOCC3)nc3scc(-c4ccccc4)c23)cc1` [Example 1.38, 4-(((2-Morpholino-5-phenylthieno[2,3-d]pyrimidin-4-yl)amino)methyl)-benzenesulfonamide], the IC50 against human ENPP1 and at ENPP3 was less than 0.1 µM in each case.

On to `NS(=O)(=O)c1ccc(CNc2nc(N3CCCCC3)nc3scc(-c4ccccc4)c23)cc1` [Example 1.39, 4-(((5-Phenyl-2-(piperidin-1-yl)thieno[2,3-d]pyrimidin-4-yl)amino)methyl)-benzenesulfonamide], for which the IC50 on human ENPP1 and at ENPP3 was 0.1 to 1 µM each time.

In the case of `NS(=O)(=O)c1ccc(CNc2nc(NC3CCCCC3)nc3scc(-c4ccccc4)c23)cc1` [Example 1.40, 4-(((2-(Cyclohexylamino)-5-phenylthieno[2,3-d]pyrimidin-4-yl)amino)methyl)-benzenesulfonamide], the IC50 on human ENPP1 lay within 0.1 to 1 µM; on ENPP3, 1 to 20 µM.

For the compound `NS(=O)(=O)c1ccc(CNc2nc(NCc3ccccc3)nc3scc(-c4ccccc4)c23)cc1` [Example 1.41, 4-(((2-(Benzylamino)-5-phenylthieno[2,3-d]pyrimidin-4-yl)amino)methyl)-benzenesulfonamide], the values for the IC50 on human ENPP1 and at ENPP3 were less than 0.1 µM and 0.1 to 1 µM, respectively.

Take `CNc1nc(NCc2ccc(S(N)(=O)=O)cc2)c2c(-c3ccccc3)csc2n1` [Example 1.42, 4-(((2-(Methylamino)-5-phenylthieno[2,3-d]pyrimidin-4-yl)amino)methyl)-benzenesulfonamide]: the IC50 against human ENPP1 and against ENPP3 was less than 0.1 µM each time.

For `CN(C)c1nc(NCc2ccc(S(N)(=O)=O)cc2)c2c(-c3ccccc3)csc2n1` [Example 1.43, 4-(((2-(Dimethylamino)-5-phenylthieno[2,3-d]pyrimidin-4-yl)amino)methyl)-benzenesulfonamide], the half-maximal inhibitory concentration (IC50) against human ENPP1 is less than 0.1 µM; on ENPP3 it was 0.1 to 1 µM.

For `Cc1nc(NCc2ccc(S(N)(=O)=O)cc2)c2c(-c3ccccc3)csc2n1` [Example 1.44, 4-(((2-Methyl-5-phenylthieno[2,3-d]pyrimidin-4-yl)amino)methyl)benzenesulfonamide], the IC50 against human ENPP1 and at ENPP3 was less than 0.1 µM throughout.

As for `Cc1nc(NCc2ccc(S(N)(=O)=O)s2)c2c(-c3ccccc3)csc2n1` [Example 1.45, 5-(((2-Methyl-5-phenylthieno[2,3-d]pyrimidin-4-yl)amino)methyl)thiophene-2-sulfonamide], the IC50 at human ENPP1 and at ENPP3 was more than 20 µM each time.

In the case of `NS(=O)(=O)c1ccc(CNc2ncnc3scc(-c4ccccc4)c23)cc1` [Example 1.46, 4-(((5-Phenylthieno[2,3-d]pyrimidin-4-yl)amino)methyl)benzenesulfonamide], the IC50 against human ENPP1 and against ENPP3 was less than 0.1 µM each time.

Turning to `NS(=O)(=O)c1ccc(CNc2cc(-c3ccccn3)nc3scc(-c4ccccc4)c23)cc1` [Example 1.47, 4-(((3-Phenyl-6-(pyridin-2-yl)thieno[2,3-b]pyridin-4-yl)amino)methyl)benzenesulfonamide], the IC50 is less than 0.1 µM at human ENPP1 and 1 to 20 µM on ENPP3.

For the compound `NS(=O)(=O)c1ccc(CNc2ncnc3scc(Br)c23)cc1` [Example 1.49, 4-((5-Bromothieno[2,3-d]pyrimidin-4-yl)aminomethyl)benzenesulfonamide], the figures for the half-maximal inhibitory concentration (IC50) against human ENPP1 and against ENPP3 were 0.1 to 1 µM and less than 0.1 µM, respectively.
